Measurements as given in ChEMBL document CHEMBL4834411, “Hydroazulene Diterpenes from a Dictyota Brown Alga and Their Antioxidant and Neuroprotective Effects Against Cerebral Ischemia-Reperfusion Injury” (2021).
The source made the active and inactive calls. No cut-off for these calls is given here.

Experiments:
PC-12 [1] = test: Cytoprotective activity against H2O2-induced oxidative damage in rat PC12 cells assessed as increase in cell viability pre-incubated for 24 hrs followed by H2O2 treatment for another 24 hrs by MTT assay; type: functional, cell-based; conditions: dose 0.25-2 µM, time 48.0 hrs
PC-12 [2] = test: Antioxidant activity against H2O2-induced oxidative damage in rat PC12 cells assessed as inhibition of intracellular ROS production at 2 uM preincubated for 24 hrs followed by H2O2 stimulation for 2 hrs by DCFH-DA staining based fluorescence microscopy; type: functional, cell-based; conditions: time 26.0 hrs
[3] = molecular target: T1, Nuclear factor erythroid 2-related factor 2 (Rattus norvegicus) (UniProt O54968); test: Activation of Nrf2 in rat PC12 cells assessed as nuclear translocation of Nrf2 at 2 uM after 6 hrs by DAPI staining based fluorescence microscopy analysis; type: cell-based; conditions: PC-12, filed as activator
T1 sequence (whole entry): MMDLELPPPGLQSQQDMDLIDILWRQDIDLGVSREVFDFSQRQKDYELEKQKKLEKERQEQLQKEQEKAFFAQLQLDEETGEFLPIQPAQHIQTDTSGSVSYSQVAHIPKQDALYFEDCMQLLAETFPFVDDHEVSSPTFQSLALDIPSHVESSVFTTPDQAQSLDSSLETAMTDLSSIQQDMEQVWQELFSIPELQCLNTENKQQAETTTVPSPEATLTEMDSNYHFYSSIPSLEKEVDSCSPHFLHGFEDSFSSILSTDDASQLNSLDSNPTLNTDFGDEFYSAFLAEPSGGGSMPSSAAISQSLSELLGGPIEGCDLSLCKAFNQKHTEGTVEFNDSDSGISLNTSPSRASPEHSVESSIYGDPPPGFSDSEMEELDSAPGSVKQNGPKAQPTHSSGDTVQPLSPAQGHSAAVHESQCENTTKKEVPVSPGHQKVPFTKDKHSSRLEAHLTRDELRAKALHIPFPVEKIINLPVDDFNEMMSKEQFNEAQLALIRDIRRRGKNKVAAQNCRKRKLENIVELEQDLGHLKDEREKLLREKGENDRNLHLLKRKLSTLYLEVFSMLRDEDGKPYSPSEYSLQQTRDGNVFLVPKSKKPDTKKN

PC-12 [4] = test: Antioxidant activity against H2O2-induced oxidative damage in rat PC12 cells assessed as inhibition of MDA production at 2 uM preincubated for 24 hrs followed by H2O2 stimulation for 6 hrs; type: functional, cell-based; conditions: time 30.0 hrs
PC-12 [5] = test: Cytoprotective activity against H2O2-induced oxidative damage in Nrf2 knockdown rat PC12 cells assessed as increase in cell viability at 2 uM preincubated for 24 hrs followed by H2O2 treatment for another 24 hrs by MTT assay; type: functional, cell-based; conditions: time 48.0 hrs
PC-12 [6] = test: Cytoprotective activity against H2O2-induced oxidative damage in rat PC12 cells assessed as increase in colony formation at 0.5 to 1 uM preincubated for 24 hrs followed by H2O2 treatment by crystal violet staining based assay; type: functional, cell-based; conditions: dose 0.5-1 µM
[7] = molecular target: T1, Nuclear factor erythroid 2-related factor 2 (Rattus norvegicus); test: Activation of Nrf2 in rat PC12 cells assessed as upregulation of HO-1 protein expression after 24 hrs by Western blotting analysis; type: cell-based; conditions: PC-12, filed as activator, dose 0.5-2 µM
PC-12 [8] = test: Cytoprotective activity against H2O2-induced oxidative damage in rat PC12 cells assessed as increase in cell viability at 0.25 uM preincubated for 24 hrs followed by H2O2 treatment for another 24 hrs by MTT assay; type: functional, cell-based; conditions: time 48.0 hrs
Rattus norvegicus [9] = test: Neuroprotective activity in Sprague-Dawley rat model of middle cerebral artery occlusion-induced cerebral ischemia-reperfusion injury assessed as reduction in neurological deficit score at 80 ug/kg pretreated for 2 hrs followed by MCAO measured after 72 hrs by TTC staining based assay; type: functional, organism-based; conditions: dose 80.0 µg/kg, time 74.0 hrs
[10] = molecular target: T1, Nuclear factor erythroid 2-related factor 2 (Rattus norvegicus); test: Activation of Nrf2 in rat PC12 cells assessed as upregulation of HO-1 protein expression at 2 uM after 24 hrs by Western blotting analysis; type: cell-based; conditions: PC-12, filed as activator
Rattus norvegicus [11] = test: Neuroprotective activity in Sprague-Dawley rat model of middle cerebral artery occlusion-induced cerebral ischemia-reperfusion injury assessed as decrease in brain infarction size at 80 ug/kg pretreated for 2 hrs followed by MCAO measured after 72 hrs by TTC staining based assay; type: functional, organism-based; conditions: dose 80.0 µg/kg

CC(C)=CCC[C@@H](C)[C@@H]1CC[C@](C)(O)[C@@H]2CC=C(C)[C@H]2[C@@H]1O
Activity (PC-12 [1]): Dose-Dependent Effect | Activity (PC-12 [2]): Active | Activity [3]: Active | Activity (PC-12 [4]): Active | Activity (PC-12 [5]): inactive | Activity (PC-12 [6]): Active | Activity [7]: Dose-Dependent Effect | Activity (PC-12 [8]): Active | Activity (Rattus norvegicus [9]): Active | Activity [10]: Active | Activity (Rattus norvegicus [11]): Active
